Marks after values point to notes of the source that are not given here.
Assays:
Chung model rat = assay: Analgesic efficacy test (2): Chung model rat, neuropathic pain model (allodynia, von Frey filament); assay type: in vivo, rats; conditions: mean ± standard error
Procedure: An analgesic efficacy test was conducted using a Chung model rat, a neuropathic pain model. Nine-week old Wistar male rats were previously bred as an experimental animal, and a model rat was then prepared in accordance with the method of Kim and Chung (Pain, 50, 355-363, 1992). Specifically, left L5 spinal nerves of rats were exposed under anesthetization with pentobarbital (40 mg/kg, intraperitoneal administration), and firmly ligated with 5-0 silk yarn at L5 dorsal root ganglion peripheral side. The animals were placed in a transparent acrylic cage of which bottom was wire netted The measurement of allodynia was carried out using von Frey filament (manufactured by North Coast Medical Inc.) and a 50% reaction threshold was calculated according to an up-down method, in accordance with a method of Chaplan et al. (J. Neurosci. Method, 53, 55-63, 1994). The 50% reaction thresholds were measured twice before injury of the spinal nerve, and those animals of which thresholds were outside the standard were removed from the operation of spinal nerve injury. On or after 14 days from the spinal nerve injury, a 50% reaction threshold was measured, and those showing thresholds of 1 g or more and less than 4 g were used as experimental animal. The group was constituted by 7 or 8 rats per group so that an average of a 50% reaction threshold for each group would be nearly even.
A solution or suspension prepared by dissolving or suspending a compound of the present invention in a 0.5% (w/v) aqueous CMC-Na solution was orally administered as a test substance in a single dose. Also, a 0.5% (w/v) aqueous CMC-Na solution was administered in the same manner to the control group for nerve injury. The measurements of allodynia were carried out with the passage of time after administration, and a 50% reaction threshold (mean±standard error) of each group at action peak was calculated. In the test for significance difference, Bartlett's test was carried out in the comparison between multiple groups of the group administered with test substance with the control group for nerve injury. In the case of homoscedasticity, Dunnett's multiple comparison test of parametrics, and in the case of heteroscedasticity, Dunnett's multiple comparison test of non-parametrics were used. In all cases, significance difference was considered to be found at P<0.05 (indicated as “*” in the tables).

ddY-type mice = assay: Analgesic efficacy test (1): acetic acid writhing test; assay type: in vivo; conditions: Mus musculus, writhing number, mean ± standard error, 8 mice per group, read-out: Suppressive Rate; for inhibition in vivo at 10 mg/kg: oral single dose 10 mg/kg; for inhibition in vivo at 100 mg/kg: oral single dose 100 mg/kg
Text: A compound of the present invention was orally administered to mice, to carry out an analgesic efficacy test according to acetic acid writhing test. As an experimental animal, 4-week old male ddY-type mice were previously bred, and thereafter 8 mice per one group were used in the experiment. A solution or suspension prepared by dissolving or suspending a compound of the present invention in a 0.5% (w/v) aqueous CMC-Na solution was orally administered as a test substance in a single dose. While, to a control group, a 0.5% (w/v) aqueous CMC-Na solution was administered in the same manner After 25 minutes from administration, the mice were intraperitoneally administered with a 0.7% (v/v) acetic acid/physiological saline at the dose of 10 mL/kg. From 5 minutes thereafter, writhing number in a 10-minute period was counted, and a suppressive rate for each individual (mean±standard error) was calculated by the following formula: […]
In the test for significance difference, Bartlett's test was carried out in the comparison between multiple groups of the group administered with test substance with the control group. In the case of homoscedasticity, Dunnett's multiple comparison test of parametrics, and in the case of heteroscedasticity, Dunnett's multiple comparison test of non-parametrics were used. In addition, in the test of dose dependency, Jonckheere-Terpstra's test was used. In all cases, significance difference was considered to be found at P<0.05 (indicated as “*” in the table).

[1] = oral 1 mg/kg, measurement point 30 minute (action peak)
[2] = oral 10 mg/kg, measurement point 30 minute (action peak)
[3] = oral 1 mg/kg, measurement point 90 minute (action peak)
[4] = oral 10 mg/kg, measurement point 90 minute (action peak)
[5] = oral 1 mg/kg, measurement point 60 minute (action peak)
[6] = oral 10 mg/kg, measurement point 60 minute (action peak)

SMILES | melting point | 50% Reaction Threshold, Group Administered with Test Substance, After Administration (Chung model rat; [1]) | 50% Reaction Threshold, Group Administered with Test Substance, After Administration (Chung model rat; [2]) | inhibition in vivo at 10 mg/kg (ddY-type mice) | inhibition in vivo at 100 mg/kg (ddY-type mice) | 50% Reaction Threshold, Group Administered with Test Substance, After Administration (Chung model rat; [3]) | 50% Reaction Threshold, Group Administered with Test Substance, After Administration (Chung model rat; [4]) | 50% Reaction Threshold, Group Administered with Test Substance, After Administration (Chung model rat; [5]) | 50% Reaction Threshold, Group Administered with Test Substance, After Administration (Chung model rat; [6])
O=C(/C=C/c1ccccc1F)NCc1cccnc1 [Compound 2, (E)-3-(2-Fluorophenyl)-N-(3-pyridylmethyl)-2-propenamide] | 115 to 116 °C | 4.85 ± 0.78 g | 7.76 ± 1.30* g | 39.9 ± 10.4% | 39.9 ± 10% | – | – | – | –
O=C(/C=C/c1ccccc1F)NCCc1ccncc1 [Compound 3, (E)-3-(2-Fluorophenyl)-N-[2-(4-pyridyl)ethyl]-2-propenamide] | 95 to 96 °C | – | – | 44.4 ± 11.1% | 59 ± 8.1% | 6.74 ± 1.04* g | 10.06 ± 1.60* g | – | –
O=C(/C=C/c1ccccc1F)NCCN1CCCCC1 [Compound 4, (E)-3-(2-Fluorophenyl)-N-[2-(1-piperidyl)ethyl]-2-propenamide] | 84 to 85 °C | 3.98 ± 0.21 g | 7.35 ± 0.95* g | 47 ± 7.8% | 49 ± 9.2% | – | – | – | –
O=C(/C=C/c1ccccc1F)NCCN1CCOCC1 [Compound 5, (E)-3-(2-Fluorophenyl)-N-(2-morpholinoethyl)-2-propenamide] | 112 to 113 °C | – | – | 34.8 ± 10.3% | 95.7 ± 3.1% | 4.91 ± 0.73 g | 8.68 ± 1.91* g | – | –
O=C(/C=C/c1ccccc1F)NCCN1CCN(C2CCCCC2)CC1 [Compound 6, (E)-N-[2-(4-Cyclohexylpiperazin-1-yl)ethyl]-3-(2-fluorophenyl)-2-propenamide] | 113 to 114 °C | – | – | 29.6 ± 12.8% | 70.4 ± 6.1% | 10.87 ± 1.24* g | 14.06 ± 0.61* g | – | –
O=C(/C=C/c1ccccc1F)NCCCN1CCN(C2CCCCC2)CC1 [Compound 7, (E)-N-[3-(4-Cyclohexylpiperazin-1-yl)propyl]-3-(2-fluorophenyl)-2-propenamide] | 84 to 85 °C | – | – | 41.5 ± 17.2% | 68.4 ± 8% | 9.05 ± 1.80 g | 12.70 ± 1.16* g | – | –
O=C(/C=C/c1ccccc1F)NCCc1c[nH]cn1 [Compound 18, (E)-3-(2-Fluorophenyl)-N-[2-(1H-imidazol-4-yl)ethyl]-2-propenamide] | 152 to 153 °C | – | – | 54.3 ± 13.2% | 62.3 ± 14.6% | 10.92 ± 1.33* g | 11.44 ± 1.95* g | – | –

More lines, main results first:

melting point | SMILES | 50% Reaction Threshold, Group Administered with Test Substance, After Administration (Chung model rat; [1]) | 50% Reaction Threshold, Group Administered with Test Substance, After Administration (Chung model rat; [2]) | inhibition in vivo at 10 mg/kg (ddY-type mice) | inhibition in vivo at 100 mg/kg (ddY-type mice) | 50% Reaction Threshold, Group Administered with Test Substance, After Administration (Chung model rat; [3]) | 50% Reaction Threshold, Group Administered with Test Substance, After Administration (Chung model rat; [4]) | 50% Reaction Threshold, Group Administered with Test Substance, After Administration (Chung model rat; [5]) | 50% Reaction Threshold, Group Administered with Test Substance, After Administration (Chung model rat; [6])
93 to 94 °C | Cn1cccc1CCNC(=O)/C=C/c1ccccc1F [Compound 8, (E)-3-(2-Fluorophenyl)-N-[2-(1-methyl-1H-pyrrol-2-yl)ethyl]-2-propenamide] | – | – | 8.5 ± 13.9% | 28.1 ± 8.3% | 4.37 ± 0.53 g | 5.57 ± 1.18* g | – | –
153 to 154 °C | Cl.O=C(/C=C/c1ccccc1F)NCCCN1CCOCC1 [Compound 11, (E)-3-(2-Fluorophenyl)-N-(3-morpholinopropyl)-2-propenamide hydrochloride] | – | – | 23.2 ± 12.8% | 68.9 ± 4.5% | – | – | 11.69 ± 1.80* g | 14.27 ± 0.73* g
99 to 100 °C | CN(C)CCCNC(=O)/C=C/c1ccccc1F.Cl [Compound 12, (E)-N-(3-Dimethylaminopropyl)-3-(2-fluorophenyl)-2-propenamide hydrochloride] | – | – | -4.3 ± 12% | 49.4 ± 14.5% | – | – | 4.64 ± 0.70 g | 5.00 ± 1.17 g
177 to 178 °C | Cl.NCCCCNC(=O)/C=C/c1ccccc1F [Compound 14, (E)-N-(4-Aminobutyl)-3-(2-fluorophenyl)-2-propenamide hydrochloride] | – | – | 46.3 ± 11.1% | 76.8 ± 4.1% | – | – | 12.38 ± 1.15* g | 13.61 ± 0.96* g
